Reference: ChEMBL document CHEMBL1909046, “DrugMatrix in vitro pharmacology data”

Key:
[1] = molecular target: Mitogen-activated protein kinase 3 (Homo sapiens, UniProt P27361); test: DRUGMATRIX: Protein Serine/Threonine Kinase, ERK1 enzyme inhibition (substrate: Myelin Basic Protein); set-up: species or system Escherichia coli; conditions: Not Active = under 50% inhibition at 10 µM
[2] = molecular target: Kappa-type opioid receptor (Homo sapiens, UniProt P41145); test: DRUGMATRIX: Opiate kappa (OP2, KOP) radioligand binding (ligand: [3H] Diprenorphine); type: cell membranes, HEK293, Membrane; conditions: hek293; Not Active = under 50% inhibition at 10 µM
[3] = DRUGMATRIX: GABAA, Muscimol, Central radioligand binding (ligand: [3H] Muscimol); type: cell membranes, Rattus norvegicus, Wistar, Brain, Membrane; conditions: Not Active = under 50% inhibition at 10 µM
[4] = DRUGMATRIX: Phorbol Ester radioligand binding (ligand: [3H] PDBu); type: cell membranes, Mus musculus, ICR, Brain, Membrane; conditions: Not Active = under 50% inhibition at 10 µM
[5] = DRUGMATRIX: Calcium Channel Type L, Phenylalkylamine radioligand binding (ligand: [3H] (-)-Desmethoxyverapamil (D-888)); type: cell membranes, Rattus norvegicus, Wistar, Brain, Membrane; conditions: Not Active = under 50% inhibition at 10 µM
[6] = molecular target: T1, Nitric oxide synthase, inducible (Mus musculus, UniProt P29477); set-up: species or system Escherichia coli;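 also: inhibition of iNOS enzyme activity measured with L-arginine as substrate; in other assays of this panel Not Active means under 50% inhibition at 10 µM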
T1 sequence (P29477 whole entry): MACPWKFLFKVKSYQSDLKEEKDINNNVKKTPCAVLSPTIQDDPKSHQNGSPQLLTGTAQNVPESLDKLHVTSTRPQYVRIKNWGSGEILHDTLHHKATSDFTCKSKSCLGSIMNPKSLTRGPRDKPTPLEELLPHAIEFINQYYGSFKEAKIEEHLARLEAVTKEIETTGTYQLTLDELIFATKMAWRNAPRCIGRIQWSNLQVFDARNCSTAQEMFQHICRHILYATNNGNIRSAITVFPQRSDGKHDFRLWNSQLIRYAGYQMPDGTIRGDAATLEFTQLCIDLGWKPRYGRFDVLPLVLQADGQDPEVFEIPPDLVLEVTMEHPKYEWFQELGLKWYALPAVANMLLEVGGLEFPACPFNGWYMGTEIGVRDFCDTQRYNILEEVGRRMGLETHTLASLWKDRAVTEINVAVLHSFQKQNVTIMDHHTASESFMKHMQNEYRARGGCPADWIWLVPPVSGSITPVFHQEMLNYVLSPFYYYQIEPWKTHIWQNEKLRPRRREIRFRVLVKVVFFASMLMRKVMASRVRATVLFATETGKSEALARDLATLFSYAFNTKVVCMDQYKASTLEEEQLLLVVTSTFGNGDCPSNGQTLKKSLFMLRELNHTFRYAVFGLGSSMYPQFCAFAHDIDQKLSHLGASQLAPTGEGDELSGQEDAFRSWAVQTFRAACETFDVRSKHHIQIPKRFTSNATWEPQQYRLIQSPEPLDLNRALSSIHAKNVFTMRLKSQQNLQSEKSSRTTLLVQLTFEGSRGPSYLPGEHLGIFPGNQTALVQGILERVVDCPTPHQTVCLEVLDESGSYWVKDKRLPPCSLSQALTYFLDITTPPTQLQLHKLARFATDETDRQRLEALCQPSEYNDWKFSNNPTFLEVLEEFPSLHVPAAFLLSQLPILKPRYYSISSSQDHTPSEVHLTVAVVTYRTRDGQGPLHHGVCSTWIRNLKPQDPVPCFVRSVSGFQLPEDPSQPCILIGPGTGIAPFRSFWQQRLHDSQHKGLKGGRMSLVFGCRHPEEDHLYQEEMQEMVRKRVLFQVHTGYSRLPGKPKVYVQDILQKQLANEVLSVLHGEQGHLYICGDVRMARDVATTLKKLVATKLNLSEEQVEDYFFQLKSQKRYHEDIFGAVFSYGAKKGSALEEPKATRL

[7] = DRUGMATRIX: Sodium/nucleoside co-transporter radioligand binding (ligand: nitrobenzylthioinosine); type: cell membranes, Cavia porcellus, Dunkin-Hartley, Cerebral cortex, Membrane; conditions: Not Active = under 50% inhibition at 10 µM
[8] = molecular target: T2, Receptor-type tyrosine-protein phosphatase C (Homo sapiens, UniProt P08575); set-up: species or system Escherichia coli;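 also: inhibition of CD45 enzyme activity measured using DiFMUP as substrate; in other assays of this panel Not Active means under 50% inhibition at 10 µM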
T2 sequence (P08575 whole entry): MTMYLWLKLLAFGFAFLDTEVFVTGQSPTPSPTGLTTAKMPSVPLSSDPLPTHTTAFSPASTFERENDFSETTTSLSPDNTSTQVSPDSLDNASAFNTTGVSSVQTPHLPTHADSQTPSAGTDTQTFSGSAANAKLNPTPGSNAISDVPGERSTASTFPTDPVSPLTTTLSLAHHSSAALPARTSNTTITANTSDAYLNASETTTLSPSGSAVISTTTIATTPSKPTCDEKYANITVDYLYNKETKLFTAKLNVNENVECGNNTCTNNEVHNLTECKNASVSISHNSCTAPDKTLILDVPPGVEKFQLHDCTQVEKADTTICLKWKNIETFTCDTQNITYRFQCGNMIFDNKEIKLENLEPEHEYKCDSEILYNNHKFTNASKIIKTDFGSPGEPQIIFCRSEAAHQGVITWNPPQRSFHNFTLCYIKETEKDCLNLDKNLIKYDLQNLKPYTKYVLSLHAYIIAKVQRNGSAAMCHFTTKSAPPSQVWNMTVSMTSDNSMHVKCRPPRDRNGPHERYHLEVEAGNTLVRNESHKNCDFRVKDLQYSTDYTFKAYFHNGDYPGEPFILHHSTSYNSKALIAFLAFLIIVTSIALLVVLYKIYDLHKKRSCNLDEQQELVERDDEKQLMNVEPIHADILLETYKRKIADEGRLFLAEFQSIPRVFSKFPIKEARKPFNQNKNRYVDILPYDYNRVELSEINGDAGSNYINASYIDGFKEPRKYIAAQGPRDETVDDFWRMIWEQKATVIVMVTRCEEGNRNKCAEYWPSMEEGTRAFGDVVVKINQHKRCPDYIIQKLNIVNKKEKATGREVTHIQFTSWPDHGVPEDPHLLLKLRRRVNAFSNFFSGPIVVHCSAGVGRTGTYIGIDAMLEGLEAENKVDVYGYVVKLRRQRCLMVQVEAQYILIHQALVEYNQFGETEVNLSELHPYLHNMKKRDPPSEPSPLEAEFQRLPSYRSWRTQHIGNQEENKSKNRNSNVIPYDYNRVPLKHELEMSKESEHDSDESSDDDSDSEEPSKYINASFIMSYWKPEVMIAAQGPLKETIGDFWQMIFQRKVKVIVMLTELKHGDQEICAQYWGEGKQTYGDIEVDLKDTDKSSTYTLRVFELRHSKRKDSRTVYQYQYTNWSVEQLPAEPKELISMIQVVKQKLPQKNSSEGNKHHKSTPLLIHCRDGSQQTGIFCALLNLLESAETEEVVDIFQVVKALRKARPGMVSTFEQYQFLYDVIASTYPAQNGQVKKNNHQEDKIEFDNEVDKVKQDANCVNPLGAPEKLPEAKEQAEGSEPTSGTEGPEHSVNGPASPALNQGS

Kappa-type opioid receptor, sequence (P41145 whole entry): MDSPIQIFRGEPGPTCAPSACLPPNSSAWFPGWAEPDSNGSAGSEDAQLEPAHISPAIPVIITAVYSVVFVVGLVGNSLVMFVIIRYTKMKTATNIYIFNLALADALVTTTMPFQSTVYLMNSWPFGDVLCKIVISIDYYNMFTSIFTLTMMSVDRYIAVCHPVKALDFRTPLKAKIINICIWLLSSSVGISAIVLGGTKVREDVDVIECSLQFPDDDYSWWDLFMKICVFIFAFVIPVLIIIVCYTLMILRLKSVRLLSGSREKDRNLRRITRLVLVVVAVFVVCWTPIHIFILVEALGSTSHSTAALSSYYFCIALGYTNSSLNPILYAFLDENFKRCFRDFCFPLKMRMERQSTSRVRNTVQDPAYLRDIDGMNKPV
Mitogen-activated protein kinase 3, sequence (P27361 whole entry): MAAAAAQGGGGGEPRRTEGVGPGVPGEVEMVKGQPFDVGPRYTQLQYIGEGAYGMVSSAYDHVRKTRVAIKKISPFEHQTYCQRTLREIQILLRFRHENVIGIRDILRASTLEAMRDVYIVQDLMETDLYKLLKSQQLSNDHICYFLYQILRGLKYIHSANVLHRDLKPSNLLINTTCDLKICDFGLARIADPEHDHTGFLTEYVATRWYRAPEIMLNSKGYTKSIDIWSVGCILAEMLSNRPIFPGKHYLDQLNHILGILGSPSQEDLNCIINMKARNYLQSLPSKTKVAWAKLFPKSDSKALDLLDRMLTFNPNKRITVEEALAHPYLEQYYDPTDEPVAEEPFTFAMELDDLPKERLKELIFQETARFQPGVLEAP

Cc1ncc([N+](=O)[O-])n1CCO [METRONIDAZOLE]
Not Active: IC50 [1] | IC50 [2] | IC50 [3] | Ki [3] | IC50 [4] | Ki [4] | IC50 [5] | Ki [5] | IC50 [6] | IC50 [7] | Ki [7] | IC50 [8]

CC(C)(C(=O)c1cccnc1)c1cccnc1 [METYRAPONE]
Not Active: IC50 [1] | IC50 [2] | IC50 [3] | Ki [3] | IC50 [4] | Ki [4] | IC50 [5] | Ki [5] | IC50 [6] | IC50 [7] | Ki [7] | IC50 [8]

Oc1ccc(OCc2ccccc2)cc1 [MONOBENZONE]
Not Active: IC50 [1] | IC50 [2] | IC50 [3] | Ki [3] | IC50 [4] | Ki [4] | IC50 [5] | Ki [5] | IC50 [6] | IC50 [7] | Ki [7] | IC50 [8]

CC(C)(Oc1ccc(C2CCCc3ccccc32)cc1)C(=O)O (stereo not given) [NAFENOPIN]
Not Active: IC50 [1] | IC50 [2] | IC50 [3] | Ki [3] | IC50 [4] | Ki [4] | IC50 [5] | Ki [5] | IC50 [6] | IC50 [7] | Ki [7] | IC50 [8]

COc1ccc2cc([C@H](C)C(=O)O)ccc2c1 [NAPROXEN]
Not Active: IC50 [1] | IC50 [2] | IC50 [3] | Ki [3] | IC50 [4] | Ki [4] | IC50 [5] | Ki [5] | IC50 [6] | IC50 [7] | Ki [7] | IC50 [8]

CC(C)[C@H]1CC[C@H](C(=O)N[C@H](Cc2ccccc2)C(=O)O)CC1 [NATEGLINIDE]
Not Active: IC50 [1] | IC50 [2] | IC50 [3] | Ki [3] | IC50 [4] | Ki [4] | IC50 [5] | Ki [5] | IC50 [6] | IC50 [7] | Ki [7] | IC50 [8]

CCN[C@@H]1C[C@H](N)[C@@H](O[C@H]2OC(CN)=CC[C@H]2N)[C@H](O)[C@H]1O[C@H]1OC[C@](C)(O)[C@H](NC)[C@H]1O [NETILMICIN]
Not Active: IC50 [1] | IC50 [2] | IC50 [3] | Ki [3] | IC50 [4] | Ki [4] | IC50 [5] | Ki [5] | IC50 [6] | IC50 [7] | Ki [7] | IC50 [8]

COC(=O)C1=C(C)NC(C)=C(C(=O)OCC(C)C)C1c1ccccc1[N+](=O)[O-] (stereo not given) [NISOLDIPINE]
Not Active: IC50 [1] | IC50 [2] | IC50 [3] | Ki [3] | IC50 [4] | Ki [4] | IC50 [5] | Ki [5] | IC50 [6] | IC50 [7] | Ki [7] | IC50 [8]

CCOC(=O)C1=C(C)NC(C)=C(C(=O)OC)C1c1cccc([N+](=O)[O-])c1 (stereo not given) [NITRENDIPINE]
Not Active: IC50 [1] | IC50 [2] | IC50 [3] | Ki [3] | IC50 [4] | Ki [4] | IC50 [5] | Ki [5] | IC50 [6] | IC50 [7] | Ki [7] | IC50 [8]

C#C[C@]1(OC(C)=O)CC[C@H]2[C@@H]3CCC4=CC(=O)CC[C@@H]4[C@H]3CC[C@@]21C [NORETHINDRONE ACETATE]
Not Active: IC50 [1] | IC50 [2] | IC50 [3] | Ki [3] | IC50 [4] | Ki [4] | IC50 [5] | Ki [5] | IC50 [6] | IC50 [7] | Ki [7] | IC50 [8]
